Our source for the IC50 and ED50 values is patent US5134151A, “2-picolylamine derivatives” (J. Uriach & Cia, priority 1989, dated 1992).

Assay [1] concerns platelet aggregation induced by PAF. As to the kind of experiment: Inhibition of Platelet Aggregation Induced by PAF (Born nephelometric technique, rabbit platelet rich plasma). The class given is cell-based, male New Zealand albino rabbits. The note with it: PAF (C18) 16 nM final. As to the method:
The blood is obtained by cardiac puncture of male New Zealand albino rabbits (between 2 and 2.5 Kg of weight) and coagulation is prevented by adding 1 part of 3.16% sodium citrate dihydrate in 9 parts of blood. The platelet rich plasma (PRP) is prepared by blood centrifugation at 250×g for 10 min. at 4° C. and it is diluted with platelet poor plasma (PPP) by additional centrifugation at 3000×g for 10 min. The amount of platelets is adjusted to 3×10^-5 /mm^3. the platelet aggregation induced by PAF (C18; prepared in our laboratory) (16 nM, final) is determined by the Born nephelometric technique (J. Physiol., 1962, 162, 67) using a aggregometer Chrono-log 500. The activities of the inhibitors are expressed as IC50, that is to say the concentration of the drug needed to inhibit the platelet aggregation by 50%.

Assay [2] relates to hypotension induced by PAF. As to the kind of experiment: Inhibition of the Hypotensive Effect Induced by PAF in Normotense Rats. The class given is in vivo, Male Sprage Dawley rats. The note with it: Rattus norvegicus, iv, anesthetized, compound i.v. 3 min before PAF 0.5 mcg/Kg i.v., average arterial pressure, read-out: CI50 (inhibition of PAF-induced hypotension). As to the method:
Male Sprage Dawley rats, of 180-220 g of weight, anesthetized with sodium pentobarbital (50 mg/Kg, i.p. 1 mL/100 g) have been used. In order to measure the average arterial pressure, a polyethylene catheter is introduced into the carotid artery. The arterial pressure is recorded with the help of a transducer connected with a R611 Beckman polygraph. The tested compounds are administered through the femoral vein 3 min before the injection of PAF (0.5 mcg/Kg, i.v.).

Where [3] appears, read: Oryctolagus cuniculus, Platelet.

In assay [1] (setting [3]), `CCCCCCCCCCCCCCCCCNC(=O)OCCOCCOC(=O)N(Cc1cccc[n+]1CC)C(=O)OCC.[I-]` [Compound 16, 2-(N-Ethoxycarbonyl-N-((2-(2-(heptadecylcarbamoyloxy)ethoxy)ethoxy)carbonyl)aminomethyl)-1-ethylpyridinium iodide] had an IC50 of 12 nM. Moreover, the ED50 in assay [2] came out at 0.021 mg/kg.

In assay [1] (setting [3]), `CCCCCCCCCCCCCCCNC(=O)OCCCCCOC(=O)N(Cc1cccc[n+]1CC)C(C)=O.[I-]` [Compound 31, 2-(N-Acetyl-N-((5-(pentadecylcarbamoyloxy)pentoxy)carbonyl)aminomethyl)-1-ethylpyridinium iodide] showed an IC50 of 32 nM. Further, the ED50 in assay [2] amounted to 0.057 mg/kg.

As for `CCCCCCCCCCCCCCCCCNC(=O)OCCOCCOC(=O)N(Cc1cccc[n+]1CC)C(C)=O` [Compound 12, 2-(N-Acetyl-N-((2-(2-heptadecylcarbamoyloxy)ethoxy)ethoxy)carbonyl)aminomethyl)-1-ethylpyridium chloride], the IC50 in assay [1] (setting [3]) worked out at 27 nM. The ED50 in assay [2] amounted to 0.067 mg/kg.

With `CCCCCCCCCCCCCCCCCCOCCOCCOC(=O)N(Cc1cccc[n+]1CC)C(C)=O.[I-]` [Compound 3, 2-(N-Acetyl-N-((2-(2-octadecyloxyethoxy)ethoxy)carbonyl)aminomethyl)-1-ethylpyridinium iodide], in assay [1] (setting [3]), it took 19 nM to reach half-maximal inhibition (IC50). Further, in assay [2], the ED50 came out at 0.022 mg/kg.

As for `CCCCCCCCCCCCCCCCCCOCCSCCOC(=O)N(Cc1cccc[n+]1CC)C(C)=O` [Compound 69, 2-(N-Acetyl-N-((2-(2-octadecyloxyethylthio)ethoxy)carbonyl)aminomethyl)-1-ethylpyridinium idodide], the IC50 in assay [1] (setting [3]) came to 15 nM. Also, the ED50 in assay [2] is 0.016 mg/kg.

In assay [1] (setting [3]), `CCCCCCCCCCCCCCCNC(=O)OCCOCCOC(=O)N(Cc1cccc[n+]1CC)C(C)=O.[I-]` [Compound 19, 2-(N-Acetyl-N-((2-(2-(pentadecylcarbamoyloxy)ethoxy)ethoxy)carbonyl)aminomethyl)-1-ethylpyridinium iodide] showed an IC50 of 19 nM. The ED50 in assay [2] is 0.041 mg/kg.

In turn, `CCCCCCCCCCCCCCCCCNC(=O)OCCOCCOC(=O)NCc1cccc[n+]1CC.[I-]` [Compound 13, 2-(N-((2-(2-(Heptadecylcarbamoyloxy)ethoxy)ethoxy)carbonyl)aminomethyl)-1-ethylpyridinium iodide] returned an IC50 in assay [1] (setting [3]) of 1600 nM. Further, in assay [2], the ED50 is 0.5 mg/kg.

Molecule `CCCCCCCCCCCCCCCNC(=O)OCCOCCOC(=O)N(Cc1cccc[n+]1CC)C(=O)OCC.[I-]` [Compound 22, 2-(N-Ethoxycarbonyl-N-((2-(2-(pentadecylcarbamoyloxy)ethoxy)ethoxy)carbonyl)aminomethyl)-1-ethylpyridinium iodide] gave a half-inhibitory concentration (IC50) in assay [1] (setting [3]) of 27 nM. In addition, the ED50 in assay [2] stood at 0.032 mg/kg.

`CCCCCCCCCCCCCCCNC(=O)OCCOCCOC(=O)N(Cc1cccc[n+]1CCC)C(C)=O.[I-]` [Compound 20, 2-(N-Acetyl-N-((2-(2-(pentadecylcarbamoyloxy)ethoxy)ethoxy)carbonyl)aminomethyl)-1-propylpyridinium iodide]: the IC50 in assay [1] (setting [3]) came to 220 nM. The ED50 in assay [2] worked out at 0.68 mg/kg.

As to `CCCCCCCCCCCCCCCCCNC(=O)OCCOCCOC(=O)N(Cc1cccc[n+]1C)C(C)=O.[I-]` [Compound 14, 2-(N-Acetyl-N-((2-(2-(heptadecylcarbamoyloxy)ethoxy)ethoxy)carbonyl)aminomethyl)-1-methylpyridinium iodide], the IC50 in assay [1] (setting [3]) came to 54 nM. In addition, the ED50 in assay [2] stood at 0.13 mg/kg.

Turning to `CCCCCCCCCCCCCCCCOCCSCCOC(=O)N(Cc1cccc[n+]1CC)C(C)=O.[I-]` [Compound 66, 2-(N-Acetyl-N-((2-(2-hexadecyloxyethylthio)ethoxy)carbonyl)aminomethyl)-1-ethylpyridinium iodide], in assay [1] (setting [3]), the IC50 was 4.4 nM. In addition, the ED50 in assay [2] was found to be 0.014 mg/kg.

Regarding `CCCCCCCCCCCCCCCNC(=O)OCCOCCOC(=O)N(Cc1cccc[n+]1CC)C(=O)OCC(C)C.[Cl-]` [Compound 25, 2-(N-Isobutyloxycarbonyl-N-((2-(2-(pentadecylcarbamoyloxy)ethoxy)ethoxy)carbonyl)aminomethyl)-1-ethylpyridinium chloride], the IC50 in assay [1] (setting [3]) came to 51 nM. Also, the ED50 in assay [2] was determined as 0.064 mg/kg.

Molecule `CC[n+]1ccccc1CN(C(C)=O)C(=O)OCCOCCOC(=O)NCC1CCCCC1.[I-]` [Compound 43, 2-(N-Acetyl-N-((2-(2-(cyclohexylmethylcarbamoyloxy)ethoxy)ethoxy)carbonyl)aminomethyl)-1-ethylpyridinium iodide] had an IC50 in assay [1] (setting [3]) of 2000 nM. The ED50 in assay [2] worked out at 0.5 mg/kg.

On to `CCCCCCCCCCCCCCCCCNC(=O)OCCSCCOC(=O)N(Cc1cccc[n+]1CC)C(C)=O.[I-]` [Compound 62, 2-(N-Acetyl-N-((2-(2-(heptadecylcarbamoyloxy)ethylthio)ethoxy)carbonyl)aminomethyl)-1-ethylpyridinium iodide], for which the midpoint of inhibition in assay [1], the IC50, lay at 4.4 nM. In addition, in assay [2], the ED50 was determined as 0.013 mg/kg.

Turning to `CC[n+]1ccccc1CN(C(C)=O)C(=O)OCCOCCOC(=O)C(C)(C)C.[I-]` [Compound 9, 2-(N-Acetyl-N-((2-(2-pivaloyloxyethoxy)ethoxy)carbonyl)aminomethyl)-1-ethylpyridinium iodide], in assay [1] (setting [3]), 1500 nM corresponded to half-maximal inhibition (IC50). Further, the ED50 in assay [2] stood at 5 mg/kg.

As to `CCCCCCCCCCCCCCCCCNC(=O)OCCSCCOC(=O)N(Cc1cccc[n+]1CC)C(C)=O.[Cl-]` [Compound 63, 2-(N-Acetyl-N-((2-(2-(heptadecylcarbamoyloxy)ethylthio)ethoxy)carbonyl)aminomethyl)-1-ethylpyridinium chloride], the midpoint of inhibition in assay [1], the IC50, lay at 12 nM. Moreover, in assay [2], the ED50 turned out to be 0.018 mg/kg.

The molecule `CCCCCCCCCCCCCCCNC(=O)OCCOCCOCCOC(=O)N(Cc1cccc[n+]1CC)C(C)=O.[I-]` [Compound 46, 2-(N-Acetyl-N-((2-(2-(2-(pentadecylcarbamoyloxy)ethoxy)ethoxy)ethoxy)carbonyl)aminomethyl)-1-ethylpyridinium iodide] showed a 50% inhibitory concentration (IC50) in assay [1] (setting [3]) of 12 nM. Further, the ED50 in assay [2] amounted to 0.028 mg/kg.

Consider `CCCCCCCCCCCCCCCNC(=O)OCCSCCOC(=O)N(Cc1cccc[n+]1CC)C(C)=O.[I-]` [Compound 37, 2-(N-Acetyl-N-((2-(2-(pentadecylcarbamoyloxy)ethylthio)ethoxy)carbonyl)aminomethyl)-1-ethylpyridinium iodide], for which the concentration for half-maximal inhibition (IC50) in assay [1] (setting [3]) was 6.8 nM. The ED50 in assay [2] was 0.044 mg/kg.

Turning to `CC[n+]1ccccc1CN(C(C)=O)C(=O)OCCOCCOC(=O)NCCCc1ccccc1.[I-]` [Compound 40, 2-(N-Acetyl-N-((2-(2-(3-phenylpropylcarbamoyloxy)ethoxy)ethoxy)carbonyl)aminomethyl)-1-ethylpyridinium iodide], the IC50 in assay [1] (setting [3]) came to 1200 nM. Also, the ED50 in assay [2] was 0.88 mg/kg.
